Data as given in patent publication US20090030024A1, “THIAZOLES AS FUNGICIDES” (priority 2005, published 2009).

Assay: logP determination by retention times (calibration with alkan-2-ones)
Conditions: logP, * HPLC reversed-phase C18, 40° C., mobile phase 0.1% aqueous formic acid and acetonitrile, linear gradient 10% to 95% acetonitrile

Row | Structure (SMILES) | chromatographic logP
1 | CCOC(=O)Nc1ccc(Nc2nccc(-c3sc(C(C)C)nc3C)n2)cc1 [Example 796, ethyl-(4-{[4-(2-isopropyl-4-methyl-1,3-thiazol-5-yl)pyrimidin-2-yl]amino}phenyl)carbamate] | 2.18
2 | COCCNc1nc(C)c(-c2ccnc(Nc3ccc(OC)c(OC)c3)n2)s1 [Example 800, N-(3,4-dimethoxyphenyl)-4-{2-[(2-methoxyethyl)amino]-4-methyl-1,3-thiazol-5-yl}pyrimidine-2-amine] | 1.55
3 | COCCNc1nc(C)c(-c2ccnc(Nc3cc(OC)cc(OC)c3)n2)s1 [Example 801, N-(3,5-dimethoxyphenyl)-4-{2-[(2-methoxyethyl)amino]-4-methyl-1,3-thiazol-5-yl}pyrimidine-2-amine] | 1.96
4 | COCCNc1nc(C)c(-c2ccnc(Nc3ccc4c(c3)OCO4)n2)s1 [Example 802, N-1,3-benzodioxol-5-yl-4-{2-[(2-methoxyethyl)amino]-4-methyl-1,3-thiazol-5-yl}pyrimidine-2-amine] | 1.65
5 | COCCNc1nc(C)c(-c2ccnc(Nc3ccc4c(c3)OCCO4)n2)s1 [Example 803, N-(2,3-dihydro-1,4-benzodioxin-6-yl)-4-{2-[(2-methoxyethyl)amino]-4-methyl-1,3-thiazol-5-yl}pyrimidine-2-amine] | 1.63
6 | COCCNc1nc(C)c(-c2ccnc(Nc3ccc(OC)c(Cl)c3)n2)s1 [Example 804, N-(3-chloro-4-methoxyphenyl)-4-{2-[(2-methoxyethyl)amino]-4-methyl-1,3-thiazol-5-yl}pyrimidine-2-amine] | 1.96
7 | COCCNc1nc(C)c(-c2ccnc(Nc3ccc(N(C)C)c(Cl)c3)n2)s1 [Example 805, 2-chloro-N4-(4-{2-[(2-methoxyethyl)amino]-4-methyl-1,3-thiazol-5-yl}pyrimidin-2-yl)-N1,N1-dimethylbenzene-1,4-diamine] | 1.57
8 | COCCNc1nc(C)c(-c2ccnc(Nc3ccc(C)c([N+](=O)[O-])c3)n2)s1 [Example 806, 4-{2-[(2-methoxyethyl)amino]-4-methyl-1,3-thiazol-5-yl}-N-(4-methyl-3-nitrophenyl)pyrimidine-2-amine] | 2.17
9 | COCCNc1nc(C)c(-c2ccnc(Nc3ccc(C#N)cc3)n2)s1 [Example 807, 4-[(4-{2-[(2-methoxyethyl)amino]-4-methyl-1,3-thiazol-5-yl}pyrimidin-2-yl)amino]benzonitrile] | 1.9

Same assay, conditions: logP, values marked *: HPLC on reversed-phase C 18, 40° C., mobile phase 0.1% aqueous formic acid and acetonitrile, linear gradient 10% to 95% acetonitrile

Row | Structure (SMILES) | chromatographic logP
10 | COCCNc1nc(C)c(-c2ccnc(Nc3ccc(O)cc3)n2)s1 [Example 808, 4-[(4-{2-[(2-methoxyethyl)amino]-4-methyl-1,3-thiazol-5-yl}pyrimidin-2-yl)amino]phenol] | 1.22
11 | Cc1nc(NCC2CCCO2)sc1-c1ccnc(Nc2ccc(F)cc2F)n1 (stereo not shown) [Example 809, N-(2,4-difluorophenyl)-4-{4-methyl-2-[(tetrahydrofuran-2-ylmethyl)amino]-1,3-thiazol-5-yl}pyrimidine-2-amine] | 2.09
12 | Cc1ccc(Nc2nccc(-c3sc(NCC4CCCO4)nc3C)n2)cc1[N+](=O)[O-] (stereo not shown) [Example 810, N-(4-methyl-3-nitrophenyl)-4-{4-methyl-2-[(tetrahydrofuran-2-ylmethyl)amino]-1,3-thiazol-5-yl}pyrimidine-2-amine] | 2.33
13 | CC(=O)c1ccc(Nc2nccc(-c3sc(NCC4CCCO4)nc3C)n2)cc1 (stereo not shown) [Example 816, 1-{4-[(4-{4-methyl-2-[(tetrahydrofuran-2-ylmethyl)amino]-1,3-thiazol-5-yl}pyrimidin-2-yl)amino]phenyl}ethanone] | 1.83
14 | COc1ccc(Nc2nccc(-c3sc(NCC4CCCO4)nc3C)n2)cc1OC (stereo not shown) [Example 817, N-(3,4-dimethoxyphenyl)-4-{4-methyl-2-[(tetrahydrofuran-2-ylmethyl)amino]-1,3-thiazol-5-yl}pyrimidine-2-amine] | 1.65
15 | CC(=O)Nc1cccc(Nc2nccc(-c3sc(C(C)C)nc3C)n2)c1 [Example 818, N-(3-{[4-(2-isopropyl-4-methyl-1,3-thiazol-5-yl)pyrimidin-2-yl]amino}phenyl)acetamide] | 2.26
16 | COc1ccc(Nc2nccc(-c3sc(C(C)C)nc3C)n2)cc1OC [Example 819, N-(3,4-dimethoxyphenyl)-4-(2-isopropyl-4-methyl-1,3-thiazol-5-yl)pyrimidine-2-amine] | 2.85
17 | CC(=O)c1ccc(Nc2nccc(-c3sc(C(C)C)nc3C)n2)cc1 [Example 820, 1-(4-{[4-(2-isopropyl-4-methyl-1,3-thiazol-5-yl)pyrimidin-2-yl]amino}phenyl)ethanone] | 3.06
18 | COc1ccc(Nc2nccc(-c3sc(C(C)C)nc3C)n2)cc1 [Example 821, 4-(2-isopropyl-4-methyl-1,3-thiazol-5-yl)-N-(4-methoxyphenyl)pyrimidine-2-amine] | 3.25
19 | Cc1nc(C(C)C)sc1-c1ccnc(Nc2ccc(N3CCCC3=O)cc2)n1 [Example 831, 1-(4-{[4-(2-isopropyl-4-methyl-1,3-thiazol-5-yl)pyrimidin-2-yl]amino}phenyl)pyrrolidin-2-one] | 2.56
20 | COCCNc1nc(C)c(-c2ccnc(Nc3ccc(F)cc3F)n2)s1 [Example 832, N-(2,4-difluorophenyl)-4-{2-[(2-methoxyethyl)amino]-4-methyl-1,3-thiazol-5-yl}pyrimidine-2-amine] | 1.99
21 | CCc1nc(C)c(-c2ccnc(Nc3ccc(F)c(N4CCN(C(C)=O)CC4)c3)n2)s1 [Example 848, N-[3-(4-acetylpiperazin-1-yl)-4-fluorophenyl]-4-(2-ethyl-4-methyl-1,3-thiazol-5-yl)pyrimidine-2-amine] | 2.42
22 | COCCCNc1nc(C)c(-c2ccnc(Nc3ccc(F)cc3)n2)s1 [Example 851, N-(4-fluorophenyl)-4-{2-[(3-methoxypropyl)amino]-4-methyl-1,3-thiazol-5-yl}pyrimidine-2-amine] | 1.92
23 | COCCCNc1nc(C)c(-c2ccnc(Nc3cccc(OC)c3)n2)s1 [Example 852, N-(3-methoxyphenyl)-4-{2-[(3-methoxypropyl)amino]-4-methyl-1,3-thiazol-5-yl}pyrimidine-2-amine] | 1.89
24 | COCCCNc1nc(C)c(-c2ccnc(Nc3cccc(NC(C)=O)c3)n2)s1 [Example 853, N-{3-[(4-{2-[(3-methoxypropyl)amino]-4-methyl-1,3-thiazol-5-yl}pyrimidin-2-yl)amino]phenyl}acetamide] | 1.44
25 | COCCCNc1nc(C)c(-c2ccnc(Nc3ccc(NC(C)=O)cc3)n2)s1 [Example 854, N-{4-[(4-{2-[(3-methoxypropyl)amino]-4-methyl-1,3-thiazol-5-yl}pyrimidin-2-yl)amino]phenyl}acetamide] | 1.4
26 | COCCCNc1nc(C)c(-c2ccnc(Nc3ccc(C(C)=O)cc3)n2)s1 [Example 855, 1-{4-[(4-{2-[(3-methoxypropyl)amino]-4-methyl-1,3-thiazol-5-yl}pyrimidin-2-yl)amino]phenyl}ethanone] | 1.81
27 | COCCCNc1nc(C)c(-c2ccnc(Nc3ccc(N4CCCC4=O)cc3)n2)s1 [Example 856, 1-{4-[(4-{2-[(3-methoxypropyl)amino]-4-methyl-1,3-thiazol-5-yl}pyrimidin-2-yl)amino]phenyl}pyrrolidin-2-one] | 1.57
28 | COCCCNc1nc(C)c(-c2ccnc(Nc3ccc(F)c(C)c3)n2)s1 [Example 857, N-(4-fluoro-3-methylphenyl)-4-{2-[(3-methoxypropyl)amino]-4-methyl-1,3-thiazol-5-yl}pyrimidine-2-amine] | 2.11
29 | COCCCNc1nc(C)c(-c2ccnc(Nc3ccc(OC)nc3)n2)s1 [Example 858, 4-{2-[(3-methoxypropyl)amino]-4-methyl-1,3-thiazol-5-yl}-N-(6-methoxypyridin-3-yl)pyrimidine-2-amine] | 1.57
30 | COCCCNc1nc(C)c(-c2ccnc(Nc3cccc(N4CCCC4=O)c3)n2)s1 [Example 861, 1-{3-[(4-{2-[(3-methoxypropyl)amino]-4-methyl-1,3-thiazol-5-yl}pyrimidin-2-yl)amino]phenyl}pyrrolidin-2-one] | 1.62
31 | CCc1nc(C)c(-c2ccnc(Nc3ccc(F)c(OC)c3)n2)s1 [Example 863, 4-(2-ethyl-4-methyl-1,3-thiazol-5-yl)-N-(4-fluoro-3-methoxyphenyl)pyrimidine-2-amine] | 2.99
32 | COCC(C)Nc1nc(C)c(-c2ccnc(Nc3ccc(S(N)(=O)=O)cc3)n2)s1 (stereo not shown) [Example 864, 4-[(4-{2-[(2-methoxy-1-methylethyl)amino]-4-methyl-1,3-thiazol-5-yl}pyrimidin-2-yl)amino]benzenesulphonamide] | 1.49

Same assay, conditions: values marked *: HPLC on reversed-phase C 18, 40° C., mobile phase 0.1% aqueous formic acid and acetonitrile, linear gradient 10% to 95% acetonitrile

Row | Structure (SMILES) | logP
33 | Cc1nc(N(C)C)sc1-c1ccnc(Nc2ccc(F)cc2)n1 [Example 849, 4-[2-(dimethylamine)-4-methyl-1,3-thiazol-5-yl]-N-(4-fluorophenyl)pyrimidine-2-amine] | 1.99*
34 | COc1cc(Nc2nccc(-c3sc(N(C)C)nc3C)n2)cc(OC)c1OC [Example 850, 4-[2-(dimethylamine)-4-methyl-1,3-thiazol-5-yl]-N-(3,4,5-trimethoxyphenyl)pyrimidine-2-amine] | 1.77*
35 | CN(C)c1nc(C(F)(F)F)c(-c2ccnc(Nc3cccc([N+](=O)[O-])c3)n2)s1 [Example 859, 4-[2-(dimethylamine)-4-(trifluoromethyl)-1,3-thiazol-5-yl]-N-(3-nitrophenyl)pyrimidine-2-amine] | 3.99*
36 | CC(=O)Nc1cccc(Nc2nccc(-c3sc(N(C)C)nc3C(F)(F)F)n2)c1 [Example 860, N-[3-({4-[2-(dimethylamine)-4-(trifluoromethyl)-1,3-thiazol-5-yl]pyrimidin-2-yl}amino)phenyl]acetamide] | 2.65*
37 | CC(=O)Nc1ccc(Nc2nccc(-c3sc(N(C)C)nc3C)n2)cc1 [Example 862, N-[4-({4-[2-(dimethylamine)-4-methyl-1,3-thiazol-5-yl]pyrimidin-2-yl}amino)phenyl]acetamide] | 1.33*
